Source: ChEMBL document CHEMBL1134264, “Identification of a subtype selective human PPARalpha agonist through parallel-array synthesis” (Bioorg Med Chem Lett, 2001)
pEC50: −log10 of the molar value. Where “and” joins values, the source holds several entries; their conditions need not be identical. Equal entries are not always repeated. Calls of active or inactive are those of the source. No cut-off for these calls is given here.

Tests used:
Cricetinae gen. sp. [1] = test: In vivo triglyceride lowering activity in fat-fed hamsters at a dose of 3 mg/kg, po for 7 days; format: functional
[2] = target: T1, Peroxisome proliferator-activated receptor gamma (Homo sapiens, UniProt P37231); test: In vitro transcriptional activation in CV-1 cells expressing human Gal4-PPAR gamma ligand binding domain; format: cell-based
T1 sequence (P37231 whole entry): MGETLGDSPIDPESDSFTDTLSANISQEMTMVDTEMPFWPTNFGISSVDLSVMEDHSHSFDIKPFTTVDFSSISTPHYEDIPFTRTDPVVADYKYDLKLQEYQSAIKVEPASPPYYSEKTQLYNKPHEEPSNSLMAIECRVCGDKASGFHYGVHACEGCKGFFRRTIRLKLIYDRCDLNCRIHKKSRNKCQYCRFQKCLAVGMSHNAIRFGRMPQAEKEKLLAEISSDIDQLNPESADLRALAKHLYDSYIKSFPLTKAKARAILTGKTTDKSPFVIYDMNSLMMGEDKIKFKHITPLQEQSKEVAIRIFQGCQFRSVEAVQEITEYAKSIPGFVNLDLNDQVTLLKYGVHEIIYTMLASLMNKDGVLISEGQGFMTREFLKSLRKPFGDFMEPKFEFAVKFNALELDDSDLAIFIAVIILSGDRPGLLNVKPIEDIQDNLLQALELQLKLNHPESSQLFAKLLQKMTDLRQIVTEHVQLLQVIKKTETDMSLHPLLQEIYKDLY

[3] = target: T2, Peroxisome proliferator-activated receptor alpha (Homo sapiens, UniProt Q07869)
T2 sequence (Q07869 whole entry): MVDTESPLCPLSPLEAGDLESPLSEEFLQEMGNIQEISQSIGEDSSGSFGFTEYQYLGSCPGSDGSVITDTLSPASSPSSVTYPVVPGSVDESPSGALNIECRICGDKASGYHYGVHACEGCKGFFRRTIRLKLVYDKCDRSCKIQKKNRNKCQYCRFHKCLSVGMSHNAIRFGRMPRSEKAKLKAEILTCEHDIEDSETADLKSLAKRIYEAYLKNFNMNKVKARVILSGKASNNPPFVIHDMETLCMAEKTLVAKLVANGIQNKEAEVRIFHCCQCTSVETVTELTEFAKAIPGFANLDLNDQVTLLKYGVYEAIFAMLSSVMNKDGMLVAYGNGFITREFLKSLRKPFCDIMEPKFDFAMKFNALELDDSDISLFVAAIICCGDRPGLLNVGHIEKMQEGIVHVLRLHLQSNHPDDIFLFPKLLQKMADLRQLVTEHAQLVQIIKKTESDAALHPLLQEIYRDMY
Description: In vitro transcriptional activation in CV-1 cells expressing human Gal4-PPAR alpha ligand binding domain

[4] = target: T3, Peroxisome proliferator-activated receptor delta (Homo sapiens, UniProt Q03181); test: In vitro transcriptional activation in CV-1 cells expressing human Gal4-PPAR delta ligand binding domain; format: cell-based
T3 sequence (Q03181 whole entry): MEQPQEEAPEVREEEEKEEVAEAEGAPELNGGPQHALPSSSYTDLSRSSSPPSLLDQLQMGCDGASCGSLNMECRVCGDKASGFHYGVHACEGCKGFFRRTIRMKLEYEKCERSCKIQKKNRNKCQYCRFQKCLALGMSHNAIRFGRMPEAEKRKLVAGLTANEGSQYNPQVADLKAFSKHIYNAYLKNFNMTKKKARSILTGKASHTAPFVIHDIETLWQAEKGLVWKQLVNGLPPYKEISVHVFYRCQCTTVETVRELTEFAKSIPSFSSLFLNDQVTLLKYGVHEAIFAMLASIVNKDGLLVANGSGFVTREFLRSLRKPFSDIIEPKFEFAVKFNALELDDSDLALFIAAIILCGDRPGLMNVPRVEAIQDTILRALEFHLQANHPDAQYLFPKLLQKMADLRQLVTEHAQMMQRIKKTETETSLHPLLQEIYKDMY

Cricetinae gen. sp. [5] = test: In vivo triglyceride lowering activity in fat-fed hamsters at a dose of 3 mg/kg, po for 7 days; not active; format: functional, organism-based; design: dose 3 mg/kg; details: Cricetulus griseus
Rattus norvegicus [6] = test: In vivo decrease in serum apolipoprotein CIII in cholesterol/cholic acid fed rats at 3 mg/kg peroral dose for 4 days; format: functional; design: scale not given: the % may be the effect or the level left; details: route oral
Rattus norvegicus [7] = test: In vivo increase in HDL cholesterol in cholesterol/cholic acid fed rats at 3 mg/kg peroral dose for 4 days; format: functional; details: route oral
Rattus norvegicus [8] = test: In vivo triglyceride lowering activity in cholesterol/cholic acid fed rats at 3 mg/kg peroral dose for 4 days; format: functional; details: route oral

For CCCCCCCN(CCc1ccc(SC(C)(C)C(=O)O)cc1)C(=O)Nc1ccc(F)cc1F [GSK-9578], which Activity (Cricetinae gen. sp. [1]) is on record?
The Activity was -88%.

How did the pEC50 [2] turn out when COc1ccc(C)cc1NC(=O)N(CCc1ccc(SC(C)(C)C(=O)O)cc1)CCc1ccc(-c2ccccc2)cc1 was run?
The pEC50 was 5.00.

And the Activity (Cricetinae gen. sp. [1])?
Its Activity is -33%.

What about the pEC50 [3] of the same compound?
Its pEC50 is 7.00.

What about the pEC50 [4] of the same compound?
Its pEC50 is < 5.00.

Which results are given for CC(C)(Sc1ccc(CCN(CCc2ccc(-c3ccccc3)cc2)C(=O)Nc2cc(Cl)cc(Cl)c2)cc1)C(=O)O?
Activity (Cricetinae gen. sp. [5]): inactive; pEC50 [2]: 5.70; pEC50 [3]: 7.30; pEC50 [4]: < 5.00

What does the source list for CC(C)(Sc1ccc(CCN(CCc2ccc(-c3ccccc3)cc2)C(=O)NC2CCCCC2)cc1)C(=O)O?
pEC50 [2]: 5.62; Activity (Cricetinae gen. sp. [1]): -70%; pEC50 [3]: 8.10; pEC50 [4]: 5.30

Cc1cc(C)c(NC(=O)N(CCc2ccc(SC(C)(C)C(=O)O)cc2)CCc2ccc(-c3ccccc3)cc2)cc1C was tested. Which Activity (Cricetinae gen. sp. [5]) did it give?
Its Activity is “inactive”.

What about the pEC50 [2] of the same compound?
Its pEC50 is 5.87.

And the pEC50 [3]?
Its pEC50 is 8.05.

And the pEC50 [4]?
Its pEC50 is < 5.00.

For CC(C)(Sc1ccc(CCN(CCCCC2CCCCC2)C(=O)NC2CCCCC2)cc1)C(=O)O [GW7647], which Activity (Rattus norvegicus [6]) is on record?
The Activity was 40%.

And the Activity (Rattus norvegicus [7])?
Its Activity is 60%.

And the Activity (Cricetinae gen. sp. [1])?
The Activity was -93%.

And the Activity (Rattus norvegicus [8])?
The Activity was 60%.

How did the Activity (Cricetinae gen. sp. [5]) turn out when COc1ccccc1NC(=O)N(CCCCC1CCCCC1)CCc1ccc(SC(C)(C)C(=O)O)cc1 was run?
The Activity was “inactive”.

What about the pEC50 [2] of the same compound?
The pEC50 was 6.49.

What about the pEC50 [3] of the same compound?
Its pEC50 is 8.30.

And the pEC50 [4]?
Its pEC50 is 5.96.

How did the pEC50 [2] turn out when Cc1ccc(NC(=O)N(CCCCC2CCCCC2)CCc2ccc(SC(C)(C)C(=O)O)cc2)cc1[N+](=O)[O-] was run?
The pEC50 was 5.70.

What about the Activity (Cricetinae gen. sp. [1]) of the same compound?
The Activity was -78%.

What about the pEC50 [3] of the same compound?
The pEC50 was 7.70.

And the pEC50 [4]?
Its pEC50 is < 5.00.

Which Activity (Cricetinae gen. sp. [5]) does the source give for COc1ccc(NC(=O)N(CCc2ccc(SC(C)(C)C(=O)O)cc2)CCc2ccc(-c3ccccc3)cc2)c(OC)c1 here?
The Activity was “inactive”.

And the pEC50 [2]?
The pEC50 was 5.92.

And the pEC50 [3]?
Its pEC50 is 8.22.

What about the pEC50 [4] of the same compound?
Its pEC50 is 5.40.

With CC(C)(Sc1ccc(CCN(CCCCC2CCCCC2)C(=O)Nc2cccc(C#N)c2)cc1)C(=O)O as the compound, how does the pEC50 [2] read?
The pEC50 was 6.00.

And the Activity (Cricetinae gen. sp. [1])?
Its Activity is -69%.

What about the pEC50 [3] of the same compound?
Its pEC50 is 8.05.

And the pEC50 [4]?
The pEC50 was < 5.00.

For CC(C)c1ccc(NC(=O)N(CCc2ccc(SC(C)(C)C(=O)O)cc2)CCc2ccc(-c3ccccc3)cc2)cc1, which Activity (Cricetinae gen. sp. [5]) is on record?
Its Activity is “inactive”.

And the pEC50 [2]?
Its pEC50 is 5.07 and 5.85.

And the pEC50 [3]?
Its pEC50 is 7.77 and 7.70.

What about the pEC50 [4] of the same compound?
The pEC50 was < 5.00 and 5.70.

CC(C)(Sc1ccc(CCN(CCCCC2CCCCC2)C(=O)Nc2cc(Cl)cc(Cl)c2)cc1)C(=O)O was tested. Which Activity (Cricetinae gen. sp. [5]) did it give?
Its Activity is “inactive”.

What about the pEC50 [2] of the same compound?
Its pEC50 is 6.00.

What about the pEC50 [3] of the same compound?
Its pEC50 is 9.00.

And the pEC50 [4]?
The pEC50 was < 5.00.
